The structures appear in SMILES notation. Calls of active or inactive are those of the source.

By AC50 is commonly meant the concentration giving half of the maximal activity seen.

Targets include Cytochrome P450 3A4 (Homo sapiens, UniProt P08684); Cytochrome P450 2C9 (Homo sapiens, UniProt P11712); Cytochrome P450 2D6 (Homo sapiens, UniProt P10635).
The next experiment deals with T1, Protein RecA (Mycobacterium tuberculosis, UniProt P9WHJ3).
T1 sequence (P9WHJ3 whole entry): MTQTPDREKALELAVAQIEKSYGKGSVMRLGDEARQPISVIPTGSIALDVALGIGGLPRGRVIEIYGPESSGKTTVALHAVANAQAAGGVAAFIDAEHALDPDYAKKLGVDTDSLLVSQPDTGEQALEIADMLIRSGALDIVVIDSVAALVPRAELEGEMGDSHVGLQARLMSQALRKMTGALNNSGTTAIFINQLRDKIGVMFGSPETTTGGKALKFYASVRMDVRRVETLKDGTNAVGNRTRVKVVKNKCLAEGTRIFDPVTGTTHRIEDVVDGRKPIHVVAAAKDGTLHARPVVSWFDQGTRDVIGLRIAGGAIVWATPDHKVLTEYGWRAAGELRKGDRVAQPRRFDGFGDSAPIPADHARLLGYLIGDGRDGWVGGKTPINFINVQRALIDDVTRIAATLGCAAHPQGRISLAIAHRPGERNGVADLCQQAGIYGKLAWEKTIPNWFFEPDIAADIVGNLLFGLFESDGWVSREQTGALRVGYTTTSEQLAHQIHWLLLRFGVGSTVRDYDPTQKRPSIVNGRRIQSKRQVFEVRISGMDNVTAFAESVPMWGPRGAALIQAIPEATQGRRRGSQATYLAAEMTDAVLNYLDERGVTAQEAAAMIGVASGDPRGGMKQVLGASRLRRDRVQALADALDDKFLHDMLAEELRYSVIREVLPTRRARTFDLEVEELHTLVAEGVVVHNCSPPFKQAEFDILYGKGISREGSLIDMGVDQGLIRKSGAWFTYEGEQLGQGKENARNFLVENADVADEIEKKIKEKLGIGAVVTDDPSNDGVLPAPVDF
Put plainly: Fluorescence Cell-Free Homogeneous Dose Retest to Identify Inhibitors of RecA-Intein Splicing Activity. [Related pubchem assays (depositor defined):AID2097, AID2223, AID489010, AID492950]. The format is functional.

Experiment [1] concerns the target T2, Replicative DNA helicase DnaB (Mycobacterium tuberculosis, UniProt P9WMR3).
T2 sequence (P9WMR3 whole entry): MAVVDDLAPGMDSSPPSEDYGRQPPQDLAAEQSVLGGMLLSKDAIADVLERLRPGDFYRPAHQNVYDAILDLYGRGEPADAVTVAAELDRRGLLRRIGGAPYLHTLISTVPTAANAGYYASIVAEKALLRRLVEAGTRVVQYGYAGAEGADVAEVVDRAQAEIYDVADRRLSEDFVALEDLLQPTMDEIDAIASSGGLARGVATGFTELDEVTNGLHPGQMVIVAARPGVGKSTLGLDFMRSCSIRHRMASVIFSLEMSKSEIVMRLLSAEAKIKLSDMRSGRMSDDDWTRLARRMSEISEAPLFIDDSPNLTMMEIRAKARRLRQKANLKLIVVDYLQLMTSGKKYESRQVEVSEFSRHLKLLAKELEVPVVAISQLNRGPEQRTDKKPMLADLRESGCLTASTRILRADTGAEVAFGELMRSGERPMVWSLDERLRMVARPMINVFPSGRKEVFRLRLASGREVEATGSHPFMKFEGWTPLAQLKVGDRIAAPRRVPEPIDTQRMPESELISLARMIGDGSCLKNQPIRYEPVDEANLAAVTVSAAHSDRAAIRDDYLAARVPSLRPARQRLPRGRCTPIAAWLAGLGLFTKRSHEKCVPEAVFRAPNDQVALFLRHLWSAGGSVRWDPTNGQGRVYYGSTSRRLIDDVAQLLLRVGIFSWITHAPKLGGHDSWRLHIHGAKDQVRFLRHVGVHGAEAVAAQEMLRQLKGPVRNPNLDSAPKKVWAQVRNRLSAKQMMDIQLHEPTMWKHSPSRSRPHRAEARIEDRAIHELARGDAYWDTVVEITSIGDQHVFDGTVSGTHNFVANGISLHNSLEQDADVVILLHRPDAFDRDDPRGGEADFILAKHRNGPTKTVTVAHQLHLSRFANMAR
The experiment can be described thus: DnaB intein splicing inhibitors, dose response, biochemical, cell-free fluorescence (AID 449749). It is filed as functional.

Experiment [2] addresses T3, Heat shock factor protein 1 (Mus musculus, UniProt P38532).
T3 sequence (P38532 whole entry): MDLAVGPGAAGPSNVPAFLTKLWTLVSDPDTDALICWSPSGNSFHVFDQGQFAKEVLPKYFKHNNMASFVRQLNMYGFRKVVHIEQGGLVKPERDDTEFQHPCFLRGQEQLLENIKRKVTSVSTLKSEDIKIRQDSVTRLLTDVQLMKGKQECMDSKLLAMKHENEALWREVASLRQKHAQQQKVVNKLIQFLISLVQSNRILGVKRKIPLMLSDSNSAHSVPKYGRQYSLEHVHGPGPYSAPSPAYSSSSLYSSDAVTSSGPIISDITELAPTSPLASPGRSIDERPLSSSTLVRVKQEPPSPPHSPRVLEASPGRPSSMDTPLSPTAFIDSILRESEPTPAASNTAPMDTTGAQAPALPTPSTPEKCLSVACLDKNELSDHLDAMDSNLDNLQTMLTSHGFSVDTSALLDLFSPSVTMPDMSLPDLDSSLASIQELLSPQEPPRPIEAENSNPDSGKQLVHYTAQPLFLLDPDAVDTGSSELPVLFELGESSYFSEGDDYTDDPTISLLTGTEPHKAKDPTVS
Put plainly: decrease of HSF1-responsive luciferase luminescence – cell-based, NIH3T3, dose retest, confirmation (AID 2382).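 Also: NIH3T3 fibroblasts with HSF1-driven luciferase reporter stressed by proteasome inhibitor MG132; luminescence from HSF1-driven luciferase expression after 8 hours of MG132 stress.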 The format is functional.

Another experiment deals with Streptococcus. Put plainly: GAS UMAA2166 growth inhibition – luminescence, BacTiterGlo, counter-screen for streptokinase expression inhibitor project, dose response (AID 1915).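 Also: potency for reduction of bacterial viability or growth.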 It is filed as functional, organism-based.
In experiment [3] the test system is Streptococcus sp. 'group A'. Put plainly: Streptococcus pyogenes SK(-)GAS viability under kanamycin – luminescence, BacTiterGlo, confirmation, counter-screen for streptokinase expression inhibitor project, dose response (AID 1900). The format is functional, organism-based. In general terms: The purpose of a counterscreen is to sort out artefacts and off-target activity.

A further experiment deals with Cytochrome P450 2C19 (Homo sapiens, UniProt P33261). Put plainly: Cytochrome panel assay with activity outcomes. Panel member name: p450-cyp2c19 Compounds with AC50 equal or less than 10 uM are considered active. It is filed as functional. The following applies: read-out: AC50.
The target in experiment [4] is T4, Corticotropin-releasing factor receptor 2/Corticotropin-releasing factor-binding protein (Homo sapiens, UniProt P24387+Q13324).
T4 sequence (Q13324 whole entry): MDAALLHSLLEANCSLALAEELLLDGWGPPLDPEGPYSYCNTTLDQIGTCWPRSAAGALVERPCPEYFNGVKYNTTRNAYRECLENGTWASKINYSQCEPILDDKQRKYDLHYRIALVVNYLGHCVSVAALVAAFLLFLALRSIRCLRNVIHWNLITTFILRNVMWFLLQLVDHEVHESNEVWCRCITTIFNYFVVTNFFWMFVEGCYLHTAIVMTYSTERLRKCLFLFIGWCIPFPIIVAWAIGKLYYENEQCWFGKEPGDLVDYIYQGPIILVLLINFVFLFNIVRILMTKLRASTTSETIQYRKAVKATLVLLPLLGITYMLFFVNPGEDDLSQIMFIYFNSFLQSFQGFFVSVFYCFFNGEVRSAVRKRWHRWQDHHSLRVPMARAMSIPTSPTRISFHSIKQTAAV
T4 sequence (P24387 whole entry): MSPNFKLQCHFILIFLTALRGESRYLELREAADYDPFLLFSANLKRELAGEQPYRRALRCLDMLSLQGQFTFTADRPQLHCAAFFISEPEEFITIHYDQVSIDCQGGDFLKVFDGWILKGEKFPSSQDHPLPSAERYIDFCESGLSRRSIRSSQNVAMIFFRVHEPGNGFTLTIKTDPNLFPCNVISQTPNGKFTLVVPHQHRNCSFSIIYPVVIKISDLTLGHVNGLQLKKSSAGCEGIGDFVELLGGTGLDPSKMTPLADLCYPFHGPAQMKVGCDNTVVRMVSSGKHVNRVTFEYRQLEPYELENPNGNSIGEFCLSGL
The experiment can be described thus: activators of CRF receptor 2 with binding protein – uHTS hits, confirmation (AID 602473). The format is functional. The following applies: read-out: EC50_Mean.

Sequence of Cytochrome P450 3A4 (P08684 whole entry): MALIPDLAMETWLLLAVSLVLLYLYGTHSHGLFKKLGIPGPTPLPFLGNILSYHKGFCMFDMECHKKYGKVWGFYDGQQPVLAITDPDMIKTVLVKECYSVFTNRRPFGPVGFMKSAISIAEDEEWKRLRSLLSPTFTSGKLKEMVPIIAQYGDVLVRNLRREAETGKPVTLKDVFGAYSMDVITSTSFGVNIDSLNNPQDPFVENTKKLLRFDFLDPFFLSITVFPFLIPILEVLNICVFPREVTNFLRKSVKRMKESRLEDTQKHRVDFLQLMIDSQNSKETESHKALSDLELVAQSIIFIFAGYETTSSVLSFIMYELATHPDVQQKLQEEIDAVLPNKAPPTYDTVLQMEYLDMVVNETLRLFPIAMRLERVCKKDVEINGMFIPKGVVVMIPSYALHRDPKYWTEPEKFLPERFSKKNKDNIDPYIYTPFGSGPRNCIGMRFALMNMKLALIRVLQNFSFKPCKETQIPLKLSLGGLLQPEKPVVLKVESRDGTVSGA
Sequence of Cytochrome P450 2C9 (P11712 whole entry): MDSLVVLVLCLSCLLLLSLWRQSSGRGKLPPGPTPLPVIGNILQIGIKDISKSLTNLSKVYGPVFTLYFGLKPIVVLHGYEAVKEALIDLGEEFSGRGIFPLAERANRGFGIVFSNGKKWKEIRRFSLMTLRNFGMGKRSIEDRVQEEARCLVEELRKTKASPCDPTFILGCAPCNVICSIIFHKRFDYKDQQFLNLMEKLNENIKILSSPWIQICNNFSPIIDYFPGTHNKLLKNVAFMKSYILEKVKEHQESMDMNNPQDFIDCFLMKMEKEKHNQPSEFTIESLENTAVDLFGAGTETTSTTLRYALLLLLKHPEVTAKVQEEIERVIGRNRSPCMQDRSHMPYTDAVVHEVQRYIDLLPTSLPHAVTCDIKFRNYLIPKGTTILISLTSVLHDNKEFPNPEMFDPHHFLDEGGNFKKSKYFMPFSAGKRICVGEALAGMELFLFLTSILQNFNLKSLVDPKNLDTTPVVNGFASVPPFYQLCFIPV
Sequence of Cytochrome P450 2D6 (P10635 whole entry): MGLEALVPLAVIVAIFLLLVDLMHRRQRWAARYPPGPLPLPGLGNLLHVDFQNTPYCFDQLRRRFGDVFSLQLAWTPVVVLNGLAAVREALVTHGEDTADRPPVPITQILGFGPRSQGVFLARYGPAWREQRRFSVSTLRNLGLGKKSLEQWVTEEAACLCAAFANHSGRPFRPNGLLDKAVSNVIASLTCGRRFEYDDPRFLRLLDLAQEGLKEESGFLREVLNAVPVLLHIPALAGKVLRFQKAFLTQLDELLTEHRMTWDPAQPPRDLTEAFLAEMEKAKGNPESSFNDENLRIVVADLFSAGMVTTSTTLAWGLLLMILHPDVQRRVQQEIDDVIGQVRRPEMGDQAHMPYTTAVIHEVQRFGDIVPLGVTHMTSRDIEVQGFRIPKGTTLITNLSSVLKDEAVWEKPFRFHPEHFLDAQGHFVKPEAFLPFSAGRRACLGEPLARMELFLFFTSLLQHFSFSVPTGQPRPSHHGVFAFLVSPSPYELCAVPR
Sequence of Cytochrome P450 2C19 (P33261 whole entry): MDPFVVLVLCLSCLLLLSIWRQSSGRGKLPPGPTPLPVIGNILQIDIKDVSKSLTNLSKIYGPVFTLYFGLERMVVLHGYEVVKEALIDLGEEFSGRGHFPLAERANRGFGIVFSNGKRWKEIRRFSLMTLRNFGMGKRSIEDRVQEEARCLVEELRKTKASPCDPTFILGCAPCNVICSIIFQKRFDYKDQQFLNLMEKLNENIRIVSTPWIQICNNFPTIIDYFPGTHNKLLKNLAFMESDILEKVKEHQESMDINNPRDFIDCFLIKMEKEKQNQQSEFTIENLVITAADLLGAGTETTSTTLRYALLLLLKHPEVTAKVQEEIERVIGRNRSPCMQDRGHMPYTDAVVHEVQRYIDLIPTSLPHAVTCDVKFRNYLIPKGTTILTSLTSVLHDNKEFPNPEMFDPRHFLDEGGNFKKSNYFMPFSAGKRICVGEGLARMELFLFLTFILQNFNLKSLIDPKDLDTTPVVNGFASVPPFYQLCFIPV

Turning to `Cc1ccc(-c2csc(NC(=O)CSC3=NCCS3)n2)cc1`, at Protein RecA, the EC50 is 3.83 µM (active). Also, the AC50 in [1] was 14.6 µM (active).
`FC(F)Oc1ccc(NC(S)=NNc2ccnc3cc(Cl)ccc23)cc1`: in experiment [2], the EC50 is > 195 µM (not active).
`Cc1ccc(-n2nc(C)c3c2OC(N)=C(C#N)C3c2ccccc2F)cc1` (centres undefined): the EC50 at Protein RecA is 24 µM (inconclusive). In addition, the AC50 in [1] is 5.37 µM (active).
Consider `COc1cccc(/C=C(\C#N)c2nc3ccccc3[nH]2)c1OCC(=O)O`, for which, in [2], the EC50 is > 195 µM (not active).
Regarding `O=C(Nc1cccc(S(=O)(=O)N2CCOCC2)c1)c1ccccn1`, in [2], the EC50 is reported as > 195 µM (not active).
In the case of `COCCN(C(S)=Nc1c(C)cccc1C)C(C)c1cccnc1` (centres undefined), the EC50 in experiment [2] was > 195 µM (not active).
Take `COC(=O)[C@@H]1CC[C@H](C)[C@@H](c2ccc(C)cc2)N1C(=O)c1ccc(/C=N\O[C@@H](C)CN2CCCc3nc(C)c(C)cc32)cc1`: the AC50 on Cytochrome P450 3A4 was 3.98 µM (inconclusive); on Cytochrome P450 2C9, 3.16 µM (inconclusive); on Cytochrome P450 2D6 it was 6.31 µM (inconclusive).
In the case of `CN(CC(=O)Nc1cccc(F)c1)CC(=O)Nc1cccc(S(N)(=O)=O)c1`, the EC50 in experiment [2] is > 195 µM (not active).
Still for that read-out and setting: under `COc1ccc(CC(NC(C)=O)C(=O)NC2CCN(C(=O)c3ccc(OC)c(OC)c3)CC2)cc1OC` (centres undefined) stands > 195 µM (not active).
The same measure, in the same setting: under `Cc1nn(C)c(Cl)c1CN1CCC(n2nccc2NC(=O)C2CCCC2)CC1` stands > 195 µM (not active).
Turning to `NC1=NN(c2cccc(C(=O)O)c2)C(=O)C1`, the EC50 at Protein RecA was 23.7 µM (inconclusive). The AC50 in experiment [1] was 20 µM (active).
Take `CN1C(=O)c2ccccc2Sc2ccc(C(=O)N3CCC4(CC3)OCCO4)cc21`: on Cytochrome P450 3A4, the AC50 was 20 µM (inconclusive). Besides, the EC50 in [2] is given as > 195 µM (not active).
Regarding `COc1ccccc1CN1CC(C(=O)NCCN2CCNC2=O)CCC1=O` (centres undefined), the EC50 in [2] is 9.48 µM (active).
Same read-out and setting: under `CCCCn1c(N)c(N(CC(C)C)C(=O)c2cccc(S(=O)(=O)N3CCCCC3)c2)c(=O)[nH]c1=O` stands > 195 µM (not active).
Turning to `Cc1n[nH]c2c1C(c1ccc3c(c1)OCO3)C(C#N)=C(N)O2` (centres undefined), the EC50 on Protein RecA was 6.16 µM (active). In addition, the half-maximal activity concentration (AC50) in experiment [1] is 15.6 µM (active).
With `CCN(C(=O)COC(=O)/C=C/c1ccccc1)C1CCCCC1`, the EC50 in experiment [2] is given as > 195 µM (not active).
Still for that read-out and setting: the result for `Cn1c(=O)n(C)c2cc(NS(C)(=O)=O)ccc21` reads > 195 µM (not active).
For the molecule `CCN(CC)S(=O)(=O)c1ccc(C)c(NC(=O)CNCc2ccccc2OC)c1`, in [2], the EC50 is > 195 µM (not active).
Take `Cc1ccc(S(=O)(=O)N2CCN(C(=O)c3ccccc3Cc3ccccc3)CC2)c(C)c1`: the EC50 at Protein RecA is 208 µM (active). Besides, the AC50 in experiment [1] is 2.54 µM (active).
As to `Nc1ccc(C#Cc2ccc3oc4ccccc4c(=O)c3c2)cc1`, the EC50 was 2.37 µM (active) in the experiment on Streptococcus and 2.5 µM (active) in experiment [3].
Turning to `CC1=NN(c2ccccc2)C(=O)/C1=C\c1cn(CCC#N)nc1-c1ccc(Cl)cc1`, the EC50 on Protein RecA was 2.77 µM (active). The AC50 in [1] was 3.78 µM (active).
With `COc1ccc(C(=O)N2CCC3(CC2)CN(c2ccncc2)C3)cc1`, the AC50 is 15.8 µM (inconclusive) on Cytochrome P450 3A4, 39.8 µM (inconclusive) on Cytochrome P450 2C9 and 25.1 µM (inconclusive) on Cytochrome P450 2D6.
For the molecule `CC(C(=O)NC1CC(C)(C)NC(C)(C)C1)c1ccc([N+](=O)[O-])cc1` (centres undefined), in [2], the EC50 is on record as > 195 µM (not active).
Consider `CCC(C)N1C(=O)C2C(C(=O)Nc3cccc(OC)c3)C3C=CC2(O3)C1C(=O)NC1CCCCC1C` (centres undefined), for which the AC50 was 12.6 µM (inconclusive) at Cytochrome P450 2C9, 7.08 µM (inconclusive) at Cytochrome P450 2D6 and 28.2 µM (inconclusive) on Cytochrome P450 2C19.
With `O=C(C1CCCC1)N1CCCC(Nc2ccc(F)cc2)C1` (centres undefined), the EC50 in experiment [4] was > 53 µM (inactive).
On the same count and under the same terms, the result for `C[C@]12c3[nH]c4ccccc4c3CCN1C(=O)C(CC(=O)NCC13C[C@H]4C[C@@H](C1)C[C@@H](C3)C4)C[C@@H]2C(=O)N1CCOCC1` (some centres undefined) reads > 53 µM (inactive).
With `CC(C)N=C(S)NC1(C)CCS(=O)(=O)C1` (centres undefined), the EC50 on Protein RecA is > 380 µM (inactive). In experiment [1], the AC50 is > 380 µM (inactive).
`O=C1CC(CC(=O)N/N=C/c2ccccc2[N+](=O)[O-])=NN1`: the EC50 on Protein RecA was 1.85 µM (active). Moreover, the AC50 in experiment [1] is 2.19 µM (active).
